Experimental data published in publication PMC10948889, “Differential scanning fluorimetry to assess PFAS binding to bovine serum albumin protein” (Scientific Reports, 2024).
Read-outs that look alike come from different tables or passages of the source.

Tests used:
[1] = target: T1, bovine serum albumin (BSA) (Bos taurus, UniProt P02769); assay: Label-free differential scanning fluorimetry, equilibrium-based binding model near BSA melting temperature; details: for Ka (association constant): 61 °C, 10 μM BSA in pH 7.4 PBS, fit to Eqs. (1) and (2), standard error in parentheses
T1 construct: purchased Sigma-Aldrich (St. Louis, MO)
T1 sequence (P02769 25-607): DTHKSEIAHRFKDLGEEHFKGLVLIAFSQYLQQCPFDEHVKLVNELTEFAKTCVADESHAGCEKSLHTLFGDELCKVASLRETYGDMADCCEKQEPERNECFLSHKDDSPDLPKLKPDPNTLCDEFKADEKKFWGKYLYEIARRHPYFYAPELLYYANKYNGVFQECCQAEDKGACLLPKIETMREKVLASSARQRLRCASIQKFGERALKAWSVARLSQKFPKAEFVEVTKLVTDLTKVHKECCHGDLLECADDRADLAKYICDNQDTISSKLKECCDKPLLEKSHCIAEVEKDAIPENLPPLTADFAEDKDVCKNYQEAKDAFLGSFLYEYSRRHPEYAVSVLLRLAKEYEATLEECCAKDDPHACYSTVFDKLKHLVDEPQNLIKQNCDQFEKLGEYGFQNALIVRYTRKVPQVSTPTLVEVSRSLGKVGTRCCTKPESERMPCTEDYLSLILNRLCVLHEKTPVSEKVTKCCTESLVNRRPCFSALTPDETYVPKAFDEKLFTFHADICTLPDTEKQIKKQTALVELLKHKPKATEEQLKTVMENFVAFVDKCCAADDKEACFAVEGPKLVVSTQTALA
Experimental: (§1) Bovine serum albumin (lyophilized powder, 99% fatty acid free) was obtained from Sigma-Aldrich (St. Louis, MO). A BSA concentration of 10 μM in pH 7.4 phosphate buffered saline (PBS) was used in each experiment. The solution of BSA was kept at 4 °C prior to use.
Experiments were conducted using a Tycho NT.6 differential scanning fluorimeter (NanoTemper, Munich, Germany). […] Solutions were prepared a day in advance of the experiment and stored at 4 °C. Immediately prior to analysis, each sample was loaded into a 1 mm diameter glass capillary and placed in the instrument. […] Fluorescence intensity was measured at 0.1 °C intervals at emission wavelengths of 330 and 350 nm. The ratio of the intensity at these wavelengths, I350/I330, was used to account for blue shifts in the emission peak wavelengths with increasing temperature. The minimum value of the first derivative of the I350/I330 curve with respect to temperature, denoting the midpoint of the melting transition where the fraction of folded to unfolded protein is 1, was taken as the melting temperature Tm. Each experiment was performed in triplicate.
As described by Eftink and Ghiron[44], baseline subtraction of the raw fluorescence intensity data collected at 350 nm was performed at both high and low temperatures. The plots were then normalized by dividing by the maximum intensity value.
The term fU is the fraction of unfolded protein based on the concentration of unfolded protein, [U], divided by the total protein, [P]t, which is the sum of [U], folded protein [F], and folded protein with bound ligand [FL]. [L] is the total free ligand by correcting the total ligand concentration, [L]t, which is a main benefit of this model. KU represents the equilibrium between folded and unfolded protein, and Kd is the ligand dissociation constant from the bound to unbound states.3 Kd=Ka-1=F[L]/[FL]

[2] = design: method as in PMID 29185060; details: octanol/water; experimental average (in parentheses), EPA CompTox Chemicals Dashboard; cited from earlier work
[3] = design: method as in PMID 29185060; details: octanol/water, EPA CompTox Chemicals Dashboard; cited from earlier work
[4] = target: T1, bovine serum albumin (BSA); assay: Label-free differential scanning fluorimetry, BSA melting temperature shift (protein stabilization); type: binding; details: for Stabilizing effect on BSA folded structure (ΔTm): ligand:BSA ratios 0:1 to 4:1, 10 μM BSA, pH 7.4 PBS
Experimental: as §1
Experiments were conducted using a Tycho NT.6 differential scanning fluorimeter (NanoTemper, Munich, Germany). PFAS was added to 2 mL of the stock BSA solution to obtain the PFAS:BSA or FA:BSA ratios of 0:1, 0.5:1, 1:1, 2:1, 3:1, and 4:1. Solutions were prepared a day in advance of the experiment and stored at 4 °C. Immediately prior to analysis, each sample was loaded into a 1 mm diameter glass capillary and placed in the instrument. […] Fluorescence intensity was measured at 0.1 °C intervals at emission wavelengths of 330 and 350 nm. The ratio of the intensity at these wavelengths, I350/I330, was used to account for blue shifts in the emission peak wavelengths with increasing temperature. The minimum value of the first derivative of the I350/I330 curve with respect to temperature, denoting the midpoint of the melting transition where the fraction of folded to unfolded protein is 1, was taken as the melting temperature Tm. Each experiment was performed in triplicate.

[5] = target: T1, bovine serum albumin (BSA); assay: Tryptophan fluorescence quenching from DSF, Hill adsorption model; type: binding; details: 35 °C to 50 °C
Experimental: as §1
Experiments were conducted using a Tycho NT.6 differential scanning fluorimeter (NanoTemper, Munich, Germany). PFAS was added to 2 mL of the stock BSA solution to obtain the PFAS:BSA or FA:BSA ratios of 0:1, 0.5:1, 1:1, 2:1, 3:1, and 4:1. Solutions were prepared a day in advance of the experiment and stored at 4 °C. Immediately prior to analysis, each sample was loaded into a 1 mm diameter glass capillary and placed in the instrument. Thermal scans were conducted from 35 to 95 °C at a scan rate of […] with a 285 nm excitation wavelength. Fluorescence intensity was measured at 0.1 °C intervals at emission wavelengths of 330 and 350 nm. The ratio of the intensity at these wavelengths, I350/I330, was used to account for blue shifts in the emission peak wavelengths with increasing temperature. The minimum value of the first derivative of the I350/I330 curve with respect to temperature, denoting the midpoint of the melting transition where the fraction of folded to unfolded protein is 1, was taken as the melting temperature Tm. Each experiment was performed in triplicate. The same procedure was used for the control ligand warfarin.
The Hill model has been used to correct for the presence of a fluorescent protein–ligand complex and binding cooperativity[21],[34].4 I0-I/I0-Ires=KHillQ^nHill/1+KHillQ^nHill
I0 and I are the fluorescence intensity of BSA in the absence and presence of the ligand and Ires accounts for residual fluorescence at infinite quencher concentration. KHill and nHill are the Hill binding constant and the cooperativity constant, respectively, and [Q] is the concentration of added quencher (PFAS or FA).

[6] = test system: cattle; details: varies by sex; cited from earlier work
[7] = ligand:BSA ratio up to 4:1, native protein Tm 62 °C

SMILES: O=C(O)C(F)(F)C(F)(F)C(F)(F)C(F)(F)C(F)(F)C(F)(F)C(F)(F)F [PFOA, Perfluorooctanoic acid]
- Kd [1]: 41 µM
- Log Kow (experimental average) [2]: 3.10
- Log Kow (predicted average) [3]: 5.68
- Tm of BSA with ligand [4, 7]: 69 to 71 °C
- Temperature dependence of KHill (Hill association constant) [5]: increasing with temperature

SMILES: O=C(O)C(F)(F)C(F)(F)C(F)(F)C(F)(F)C(F)(F)C(F)(F)C(F)(F)C(F)(F)C(F)(F)F [PFDA, Perfluorodecanoic acid]
- Ka (association constant) [1]: 0.33 (0.26) 10^4 M^−1
- Log Kow (experimental average) [2]: 4.15
- Log Kow (predicted average) [3]: 7.32
- Stabilizing effect on BSA folded structure (ΔTm) [4]: no measurable protein stabilization
- Temperature dependence of KHill (Hill association constant) [5]: increasing with temperature

SMILES: O=C(O)C(F)(OC(F)(F)C(F)(F)C(F)(F)F)C(F)(F)F (stereo not drawn) [GenX, Perfluoro-2-methyl-3-oxahexanoic acid]
- Kd [1]: 50.5 µM
- Log Kow (predicted average) [3]: 5.41
- Stabilizing effect on BSA folded structure (ΔTm) [4]: little stabilization
- Temperature dependence of KHill (Hill association constant) [5]: does not change with temperature

SMILES: O=S(=O)(O)C(F)(F)C(F)(F)C(F)(F)C(F)(F)C(F)(F)C(F)(F)C(F)(F)C(F)(F)F [PFOS, Sodium perfluorooctanesulfonate]
- Log Kow (predicted average) [3]: 4.94
- Stabilizing effect on BSA folded structure (ΔTm) [4]: minimal shift Tm
- half-life [6]: 39 to 120 days

SMILES: CCCCCCCCC(=O)O [NA, Nonanoic acid]
- Kd [1]: 0.341 µM
- Log Kow (experimental average) [2]: 3.42
- Log Kow (predicted average) [3]: 3.41

SMILES: O=S(=O)(O)C(F)(F)C(F)(F)C(F)(F)C(F)(F)C(F)(F)C(F)(F)F [PFHxS, Sodium perfluorohexanesulfonate]
- Kd [1]: 10.6 µM
- Log Kow (predicted average) [3]: 2.91
- Tm of BSA with ligand [4, 7]: 69 to 71 °C
- Stabilizing effect on BSA folded structure (ΔTm) [4]: greatest stabilizing effect

SMILES: CCCCCCCC(=O)O [OA, Octanoic acid]
- Log Kow (experimental average) [2]: 3.05
- Log Kow (predicted average) [3]: 2.99

SMILES: CCCCCCCCCC(=O)O [DA, Decanoic acid]
- Kd [1]: 27.6 µM
- Log Kow (predicted average) [3]: 4.03

SMILES: O=S(=O)([O-])C(F)(F)C(F)(F)C(F)(F)C(F)(F)F.[Na+] [PFBS, Sodium perfluorobutylsulfonate]
- Ka (association constant) [1]: 2.08 (0.61) 10^4 M^−1
- Log Kow (predicted average) [3]: 2.20
- Stabilizing effect on BSA folded structure (ΔTm) [4]: little stabilization

SMILES: O=C(O)C(F)(F)C(F)(F)C(F)(F)C(F)(F)C(F)(F)C(F)(F)C(F)(F)C(F)(F)F [PFNA, Perfluorononanoic acid]
- Log Kow (experimental average) [2]: 3.54
- Log Kow (predicted average) [3]: 6.51
- Tm of BSA with ligand [4]: 69 to 71 °C
- Stabilizing effect on BSA folded structure (ΔTm) [4]: greatest stabilizing effect
- Temperature dependence of KHill (Hill association constant) [5]: increasing with temperature
